# According to ChEMBL document CHEMBL1145637, “Dual binding site inhibitors of B-RAF kinase” (Bioorg Med Chem Lett, 2008):
# Active and inactive are the calls of the source. No cut-off for these calls is given here.
# Key:
# [1] = Metabolic stability in human liver microsome after 30 mins; format: ADME; conditions: liver microsomes, read-out: Stability
# [2] = Aqueous solubility in NaH2PO4 at pH 7.4 after 24 hrs by HPLC; format: physicochemical; conditions: for solubility at 24 h: NaH2PO4 buffer, pH 7.4; for Activity: buffer, pH 7.4, 24 h
# [3] = target: RAF proto-oncogene serine/threonine-protein kinase (Homo sapiens, UniProt P04049); experiment: Inhibition of C-RAF kinase
# [4] = target: Serine/threonine-protein kinase B-raf (Homo sapiens, UniProt P15056, V600E)
# Description: Inhibition of B-RAF V600E mutant
# [5] = (§1) Metabolic stability in rat liver microsome after 30 mins; format: ADME, microsomes; conditions: liver microsomes, read-out: Stability
# [6] = target: Serine/threonine-protein kinase B-raf (Homo sapiens, UniProt P15056)
# Description: Inhibition of B-RAF kinase
# [7] = Inhibition of ERK phosphorylation
# [8] = tested on: Liver microsomes; experiment: as §1; format: ADME; conditions: microsomes, 0.5 h
# Sequence of Serine/threonine-protein kinase B-raf (Homo sapiens, UniProt P15056) (P15056 whole entry): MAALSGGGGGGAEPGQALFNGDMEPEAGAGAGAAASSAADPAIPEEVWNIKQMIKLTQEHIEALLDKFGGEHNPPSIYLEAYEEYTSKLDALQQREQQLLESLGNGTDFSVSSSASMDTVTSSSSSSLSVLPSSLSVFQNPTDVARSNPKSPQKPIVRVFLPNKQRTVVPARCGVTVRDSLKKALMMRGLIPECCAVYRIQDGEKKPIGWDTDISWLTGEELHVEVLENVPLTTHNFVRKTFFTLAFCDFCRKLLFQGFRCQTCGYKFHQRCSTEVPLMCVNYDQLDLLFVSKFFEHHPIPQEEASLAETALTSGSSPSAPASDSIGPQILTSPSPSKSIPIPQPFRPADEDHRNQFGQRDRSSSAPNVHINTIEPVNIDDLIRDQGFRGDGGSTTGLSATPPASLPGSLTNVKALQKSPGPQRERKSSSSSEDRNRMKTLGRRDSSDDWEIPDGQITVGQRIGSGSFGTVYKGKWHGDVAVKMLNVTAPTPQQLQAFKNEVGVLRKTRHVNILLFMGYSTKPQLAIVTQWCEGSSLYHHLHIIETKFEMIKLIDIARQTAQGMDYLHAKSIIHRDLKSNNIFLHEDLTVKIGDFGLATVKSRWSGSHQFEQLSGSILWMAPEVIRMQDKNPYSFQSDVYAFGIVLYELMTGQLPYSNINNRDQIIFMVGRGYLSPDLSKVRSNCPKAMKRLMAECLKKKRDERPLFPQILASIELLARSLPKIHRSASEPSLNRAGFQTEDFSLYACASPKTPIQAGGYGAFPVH
# Sequence of Serine/threonine-protein kinase B-raf (Homo sapiens, UniProt P15056, V600E) (P15056 2-766 V600E limits assumed): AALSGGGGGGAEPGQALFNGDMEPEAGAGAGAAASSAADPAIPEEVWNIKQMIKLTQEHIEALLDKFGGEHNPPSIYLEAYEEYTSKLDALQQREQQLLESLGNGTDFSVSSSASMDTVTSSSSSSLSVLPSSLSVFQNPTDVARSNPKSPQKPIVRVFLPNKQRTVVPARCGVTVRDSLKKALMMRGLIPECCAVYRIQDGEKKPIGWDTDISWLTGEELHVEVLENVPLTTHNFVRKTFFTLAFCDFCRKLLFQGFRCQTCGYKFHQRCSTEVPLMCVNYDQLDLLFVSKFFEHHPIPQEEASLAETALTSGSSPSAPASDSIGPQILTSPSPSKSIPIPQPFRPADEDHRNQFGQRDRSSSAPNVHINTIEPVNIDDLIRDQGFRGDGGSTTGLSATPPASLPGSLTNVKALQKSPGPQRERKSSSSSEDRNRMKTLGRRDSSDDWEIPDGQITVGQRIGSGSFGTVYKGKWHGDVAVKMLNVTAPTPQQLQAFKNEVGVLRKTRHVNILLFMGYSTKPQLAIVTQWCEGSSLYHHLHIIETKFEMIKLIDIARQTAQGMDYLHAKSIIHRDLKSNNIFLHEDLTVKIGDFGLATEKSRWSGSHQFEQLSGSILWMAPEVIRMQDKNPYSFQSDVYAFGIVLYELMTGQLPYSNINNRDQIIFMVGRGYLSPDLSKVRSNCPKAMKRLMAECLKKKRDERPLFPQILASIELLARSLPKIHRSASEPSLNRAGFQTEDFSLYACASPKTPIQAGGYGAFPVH
# Sequence of RAF proto-oncogene serine/threonine-protein kinase (P04049 whole entry): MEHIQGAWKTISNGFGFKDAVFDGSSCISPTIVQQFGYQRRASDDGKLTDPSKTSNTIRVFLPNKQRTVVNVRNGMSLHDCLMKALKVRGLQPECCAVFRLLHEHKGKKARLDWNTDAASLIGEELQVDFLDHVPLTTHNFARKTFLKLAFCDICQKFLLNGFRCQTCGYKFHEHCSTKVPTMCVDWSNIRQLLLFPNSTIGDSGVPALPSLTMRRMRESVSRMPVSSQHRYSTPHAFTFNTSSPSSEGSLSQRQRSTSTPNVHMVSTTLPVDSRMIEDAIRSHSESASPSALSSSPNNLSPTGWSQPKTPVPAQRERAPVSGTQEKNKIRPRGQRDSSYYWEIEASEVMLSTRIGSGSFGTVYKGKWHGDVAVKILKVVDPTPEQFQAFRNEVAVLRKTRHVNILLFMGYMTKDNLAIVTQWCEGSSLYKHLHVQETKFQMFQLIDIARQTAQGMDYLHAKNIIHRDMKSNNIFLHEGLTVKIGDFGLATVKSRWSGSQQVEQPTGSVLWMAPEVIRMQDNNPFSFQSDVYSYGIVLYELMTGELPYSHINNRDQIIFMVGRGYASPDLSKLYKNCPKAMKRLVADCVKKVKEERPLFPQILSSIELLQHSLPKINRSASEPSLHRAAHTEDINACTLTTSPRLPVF
structure (smiles),measurement,setting,value
CNc1nccc(-c2[nH]c(C3CC3)nc2-c2cccc(NC(=O)Nc3ccc(Cl)c(C(F)(F)F)c3)c2)n1,remaining at 0.5 h,[1],80%
same,solubility at 24 h,[2],0.3 µM
same,IC50,[3],5 nM
same,IC50,[4],16 nM
same,remaining at 0.5 h,[5],57%
same,IC50,[6],21 nM
same,IC50,[7],1.4 µM
NC(=O)c1cccc(Nc2nccc(-c3[nH]c(C(F)(F)F)nc3-c3cccc(NC(=O)Cc4ccc(Cl)cc4)c3)n2)c1,remaining at 0.5 h,[1],71%
same,solubility at 24 h,[2],0.35 µM
same,IC50,[3],17 nM
same,IC50,[4],85 nM
same,remaining at 0.5 h,[5],47%
same,IC50,[6],108 nM
same,IC50,[7],30 µM
NC(=O)c1cccc(Nc2nccc(-c3[nH]c(C4CC4)nc3-c3cccc(NC(=O)Cc4ccc(Cl)cc4)c3)n2)c1,remaining at 0.5 h,[1],53%
same,solubility at 24 h,[2],0.5 µM
same,IC50,[3],0.5 nM
same,IC50,[4],3 nM
same,remaining at 0.5 h,[5],58%
same,IC50,[6],4 nM
same,IC50,[7],2.4 µM
O=C1NCCN1CCNc1nccc(-c2[nH]c(C3CC3)nc2-c2cccc(NS(=O)(=O)Cc3ccc(Cl)c(Cl)c3)c2)n1,Activity,[7],inactive
O=C(Nc1cccc(-c2nc(C3CC3)[nH]c2-c2ccnc(NCCN3CCNC3=O)n2)c1)Nc1ccc(Cl)c(C(F)(F)F)c1,remaining at 0.5 h,[1],50%
same,solubility at 24 h,[2],6.2 µM
same,IC50,[3],14 nM
same,IC50,[4],22 nM
same,remaining at 0.5 h,[5],44%
same,IC50,[6],66 nM
same,IC50,[7],2.3 µM
O=C(Cc1ccc(Cl)cc1)Nc1cccc(-c2nc(C(F)(F)F)[nH]c2-c2ccnc(NCCN3CCNC3=O)n2)c1,remaining at 0.5 h,[1],73%
same,solubility at 24 h,[2],7.5 µM
same,IC50,[3],20 nM
same,IC50,[4],40 nM
same,remaining at 0.5 h,[5],34%
same,IC50,[6],54 nM
same,IC50,[7],30 µM
CC(C)(C)NC(=O)NCCNc1nccc(-c2[nH]c(C3CC3)nc2-c2ccccc2Cl)n1,IC50,[6],83 nM
CNC(=O)c1cc(Oc2ccc(NC(=O)Nc3ccc(Cl)c(C(F)(F)F)c3)cc2)ccn1 [SORAFENIB],remaining at 0.5 h,[1],80%
same,solubility at 24 h,[2],6.3 µM
same,Activity,[8],Not Active
same,IC50,[7],8.3 µM
NC(=O)c1cccc(Nc2nccc(-c3[nH]c(C4CC4)nc3-c3cccc(NS(=O)(=O)Cc4ccc(Cl)c(Cl)c4)c3)n2)c1,Activity,[7],inactive
CNc1nccc(-c2[nH]c(C3CC3)nc2-c2cccc(NC(=O)Cc3ccc(Cl)cc3)c2)n1,solubility at 24 h,[2],0.4 µM
same,IC50,[3],1 nM
same,IC50,[4],3 nM
same,IC50,[6],9 nM
same,IC50,[7],5.1 µM
O=C(Cc1ccc(Cl)cc1)Nc1cccc(-c2nc(C3CC3)[nH]c2-c2ccnc(NCCN3CCNC3=O)n2)c1,remaining at 0.5 h,[1],38%
same,solubility at 24 h,[2],35 µM
same,IC50,[3],1 nM
same,IC50,[4],2 nM
same,remaining at 0.5 h,[5],60%
same,IC50,[6],7 nM
same,IC50,[7],3 µM
O=C1NCCN1CCNc1nccc(-c2nc(C3CC3)[nH]c2-c2cc(Cl)ccc2Cl)n1,IC50,[6],10 nM
NC(=O)c1cccc(Nc2nccc(-c3nc(C4CC4)[nH]c3-c3cccc(NS(=O)(=O)Cc4ccc(Cl)c(Cl)c4)c3)n2)c1,remaining at 0.5 h,[1],76%
same,Activity,[2],Not Active
same,IC50,[3],49 nM
same,IC50,[4],274 nM
same,remaining at 0.5 h,[5],44%
same,IC50,[6],887 nM
CNc1nccc(-c2[nH]c(C(F)(F)F)nc2-c2cccc(NC(=O)Cc3ccc(Cl)cc3)c2)n1,remaining at 0.5 h,[1],74%
same,solubility at 24 h,[2],0.48 µM
same,IC50,[3],2 nM
same,IC50,[4],18 nM
same,remaining at 0.5 h,[5],81%
same,IC50,[6],30 nM
same,IC50,[7],12.6 µM
CNc1nccc(-c2[nH]c(C3CC3)nc2-c2cccc(NS(=O)(=O)Cc3ccc(Cl)c(Cl)c3)c2)n1,remaining at 0.5 h,[1],60%
same,Activity,[2],Not Active
same,IC50,[3],26 nM
same,IC50,[4],138 nM
same,remaining at 0.5 h,[5],87%
same,IC50,[6],469 nM
same,Activity,[7],inactive
NC(=O)c1cccc(Nc2nccc(-c3[nH]c(C4CC4)nc3-c3cccc(NC(=O)Nc4ccc(Cl)c(C(F)(F)F)c4)c3)n2)c1,solubility at 24 h,[2],0.4 µM
same,IC50,[3],31 nM
same,IC50,[4],61 nM
same,IC50,[6],35 nM
same,IC50,[7],2.1 µM
O=C1NCCN1CCNc1nccc(-c2nc(C3CC3)[nH]c2-c2cccc(NS(=O)(=O)Cc3ccc(Cl)c(Cl)c3)c2)n1,remaining at 0.5 h,[1],85%
same,Activity,[2],Not Active
same,IC50,[3],41 nM
same,IC50,[4],141 nM
same,remaining at 0.5 h,[5],52%
same,IC50,[6],343 nM
